According to US5371102A, “Compositions and methods of inhibiting thyroid activity” (priority 1993, dated 1994):

Key:
[1] = chemical oxidation stoichiometry of thiones; format: physicochemical
Experimental: Oxidation stoichiometries were determined for the thione compounds MBI, MMBI and DMMBI by incubating the thiones with varying amounts of PBA (0-250μM). The rapid reaction (t1/2 <10 s at 25° C.) of benzimidazole-2-thiones with PBA in methanol provided a convenient method for determining oxidation stoichiometry.
Oxidation stoichiometries were determined spectrophoto, metrically, using a Hewlett Packard 8452A diode array spectrophotometer, by measuring thione concentration at 305 nm as a function of PBA concentration. Hydroperoxide content was determined iodometrically. Stoichiometries of substrate consumption/product formation were also determined by addition of limiting amounts of PBA to 100 μM MBI or MMBI in 50% methanol/pH 7 phosphate. The disappearance of thione and the production of BI, MeBI and bisulfite ion was determined after one hour at 25° C. The production of bisulfite ion was measured […]. The production of sulfate ion was determined by ion chromatography using a AS4A column (Dionex Co., Sunnyvale, CA) with a Dionex Gradient Pump Module and a Dionex CDM II conductivity detector equipped with an AMMS suppressor using 3 mM carbonate/bicarbonate buffer pH 10 as eluant at 2.0 ml/min. Reaction products were also monitored by ^1 H NMR performed at 300 MHz using a Nicolet NT300 or General Electric QE300 spectrometer DSS as a reference.

TPX = target: T1, TPX (Sus scrofa, UniProt P09933); experiment: TPX inactivation; format: biochemical, hog
T1 sequence (P09933 15-926): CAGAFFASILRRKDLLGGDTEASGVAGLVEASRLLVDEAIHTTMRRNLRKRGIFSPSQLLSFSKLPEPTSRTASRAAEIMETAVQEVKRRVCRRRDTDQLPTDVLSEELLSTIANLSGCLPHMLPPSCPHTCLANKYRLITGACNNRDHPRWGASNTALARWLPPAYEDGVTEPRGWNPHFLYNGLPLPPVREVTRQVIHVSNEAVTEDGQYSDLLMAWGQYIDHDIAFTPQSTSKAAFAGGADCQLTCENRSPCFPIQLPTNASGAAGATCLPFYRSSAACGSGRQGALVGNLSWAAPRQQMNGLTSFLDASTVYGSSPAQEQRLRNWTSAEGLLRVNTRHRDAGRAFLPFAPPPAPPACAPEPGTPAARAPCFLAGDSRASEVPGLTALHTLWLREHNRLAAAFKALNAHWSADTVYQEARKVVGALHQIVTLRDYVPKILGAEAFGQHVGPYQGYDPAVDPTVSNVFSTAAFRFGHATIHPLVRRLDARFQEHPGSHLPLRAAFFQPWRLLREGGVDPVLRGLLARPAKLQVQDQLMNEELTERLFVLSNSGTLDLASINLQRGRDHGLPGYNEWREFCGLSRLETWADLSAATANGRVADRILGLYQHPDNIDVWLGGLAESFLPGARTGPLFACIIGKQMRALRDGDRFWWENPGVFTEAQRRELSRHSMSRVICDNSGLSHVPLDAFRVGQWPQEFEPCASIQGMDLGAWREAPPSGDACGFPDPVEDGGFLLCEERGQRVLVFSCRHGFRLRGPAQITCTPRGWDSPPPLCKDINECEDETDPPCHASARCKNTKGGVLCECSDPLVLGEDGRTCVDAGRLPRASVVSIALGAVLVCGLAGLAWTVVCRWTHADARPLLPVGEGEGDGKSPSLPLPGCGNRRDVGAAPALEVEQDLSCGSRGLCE
From the text: Materials used in the examples below were obtained from the following sources. Bovine LPX, bovine liver catalase, glucose oxidase, 30% hydrogen peroxide, glucose, guaiacol, ABTS and deuterium oxide were purchased from Sigma Chemical Company. Selenium dioxide, MBI ^13 CH3 I and PBA were purchased from Aldrich Chemical Company and PBA was purified as previously described by Fieset et al., Reagents for Organic Synthesis, Vol. I, pp.135-139, John Wiley and Sons, N.Y. (1967). LPX purity was checked by PAGE, as described by Doerge, D.R., et al. in, Biochem. Pharmacol., Vol.36, pp.972-974 (1986). TPX was purified from hog thyroids obtained from a local slaughterhouse by published procedures. Doerge & Takazowa, Chemical Research in Toxicology, Vol. 3, pp. 98-101 (1990). TPX purity was determined by LC and its concentration determined spectophotometrically. Hydroperoxide concentrations were determined by iodometric titration, as described by Kolthoff, et al., in "Quantitative Chemical Analysis", Macmillan, London, pp.842-860 (1969). MMBI, and BI were synthesized by published procedures as described by Doerge, D.R., Biochem, Vol. 27, pp. 3697-3700 (1988) and were recrystallized from aqueous ethanol. MeBI was purified by distillation and DMeBI^+ was synthesized and purified by recrystallization from ethyl acetate/methanol. 1-^13 C-MMBI was synthesized from ^13 CH3 I according to the procedure disclosed by Doerge, D.R., in, J. Lab. Comp. and Radiopharm., Vol.25, pp.985-990 (1988). PPHP and PPA were prepared, purified and analyzed as previously described by Doerge, Biochem, Vol.27, p.11 (1988). The methyl ester of 1-methyl-benzimidazole-2-sulfinic acid was prepared by addition of hydrogen peroxide (5 equivalents of a 10 M solution) to MMBI (0.1 M) in methanol. The products, MeBI and the ester, were obtained following preparative TLC on silica (Uniplate, Analtech Co., Newark, DL) using 5% methanol/chloroform as eluant.
DMMBI was synthesized according to a published method. Duffin et al., J. Chem. Soc., Part II, pp.364-365 (1956). Samples including TPX, H2 O2, and I^- were incubated with and without DMMBI. Triiodide formation was observed spectrophotometrically with respect to time.

LPX = target: T2, LPX (Bos taurus, UniProt P80025); experiment: LPX-catalyzed tyrosine iodination; format: biochemical, bovine
T2 construct: purchased Sigma Chemical Company
From the text: Materials used in the examples below were obtained from the following sources. Bovine LPX, bovine liver catalase, glucose oxidase, 30% hydrogen peroxide, glucose, guaiacol, ABTS and deuterium oxide were purchased from Sigma Chemical Company. Selenium dioxide, MBI ^13 CH3 I and PBA were purchased from Aldrich Chemical Company and PBA was purified as previously described by Fieset et al., Reagents for Organic Synthesis, Vol. I, pp.135-139, John Wiley and Sons, N.Y. (1967). LPX purity was checked by PAGE, as described by Doerge, D.R., et al. in, Biochem. Pharmacol., Vol.36, pp.972-974 (1986). TPX was purified from hog thyroids obtained from a local slaughterhouse by published procedures. Doerge & Takazowa, Chemical Research in Toxicology, Vol. 3, pp. 98-101 (1990). TPX purity was determined by LC and its concentration determined spectophotometrically. Hydroperoxide concentrations were determined by iodometric titration, as described by Kolthoff, et al., in "Quantitative Chemical Analysis", Macmillan, London, pp.842-860 (1969). […] PPHP and PPA were prepared, purified and analyzed as previously described by Doerge, Biochem, Vol.27, p.11 (1988). […]
In this experiment the effect of DMMBI on tyrosine iodination catalyzed by LPX was determined. […]

Cn1c(=S)n(C)c2ccccc21 [DMMBI, 1,3-dimethylbenzimidazole-2-thione]
equivalents of oxidant required ([1]; PBA or hydrogen peroxide, aqueous medium, products DMeBI+ and sulfate): 3 equivalents | moles of oxidant required for total reaction ([1]; PBA, FIG. 4): three | equivalents of hydroperoxide required per mole of thione ([1]; hydroperoxides): 3 equivalents | TPX inactivation (TPX; 100 μM, 1 minute incubation): does not inactivate TPX | TPX inactivation (TPX; presence of hydrogen peroxide): does not inactivate LPX or TPX | tyrosine iodination (LPX): inhibits tyrosine iodination
